For orientation: IC50 means the point on the concentration scale where inhibition reaches its midpoint.

Where a name gives a salt, the structure may show the parent alone. Read-outs that look alike come from different tables or passages of the source.

The assay concerns the target Recombinant human renin (Homo sapiens (Human), UniProt P00797). Put plainly: Inhibitory activity against human renin (fluorogenic synthetic peptide substrate). It counts as biochemical. The procedure:
Inhibitory Activity Against Human Renin
A renin substrate of synthetic peptide (Nma-KHPFH LVIHK(Dnp)-NH2) and test compound were mixed, and fluorescence intensity was assayed using a fluorophotometer before starting an enzymatic reaction (exciting wavelength: 340 nm, measuring wavelength: 460 nm). Recombinant human renin was added and the mixture was incubated at 37° C. for an hour, and the fluorescence intensity was measured after the reaction using a fluorophotometer (exciting wavelength: 340 nm, measuring wavelength: 460 nm). Renin activity was evaluated on the ground of fluorescence intensity which was obtained by deduction of the intensity before the reaction from the intensity after the reaction, and 50% inhibitory concentration (IC50) was calculated from renin activities under the existence of various concentration of the tested compound.

Where [1] appears, read: recombinant human renin, substrate Nma-KHPFH LVIHK(Dnp)-NH2, 37° C. for an hour, fluorescence, read-out: Inhibitory Activity against human Renin(IC50).

Chain of Recombinant human renin (P00797 67-406): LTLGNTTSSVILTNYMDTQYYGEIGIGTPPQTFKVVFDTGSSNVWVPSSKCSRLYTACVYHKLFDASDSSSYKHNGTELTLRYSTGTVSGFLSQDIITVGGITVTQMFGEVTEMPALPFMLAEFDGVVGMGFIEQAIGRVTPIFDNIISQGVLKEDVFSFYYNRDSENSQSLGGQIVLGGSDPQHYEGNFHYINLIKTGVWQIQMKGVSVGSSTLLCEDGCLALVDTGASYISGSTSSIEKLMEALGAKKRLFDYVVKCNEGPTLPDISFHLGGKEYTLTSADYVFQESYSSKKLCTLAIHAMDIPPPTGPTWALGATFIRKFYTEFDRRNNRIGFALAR

Consider `COCCCn1cc(CN(C(=O)[C@H]2CNCCO2)C2CC2)c2ccccc21` [Example 39], for which, under setting [1], the half-inhibitory concentration (IC50) was determined as 13 nM. Consider `COCCCOc1cc(CN(C(=O)[C@H]2CNCCO2)C2CC2)ccc1OC` [(2R)—N-cyclopropyl-N-[4-methoxy-3-(3-methoxypropoxy)benzyl]morpholine-2-carboxamide hydrochloride], for which, for the setting “assay for renin-inhibition, read-out: renin-inhibition IC50”, the 50% inhibitory concentration (IC50) is less than 1000 nM. `COCCCOc1cc(CN(C(=O)[C@H]2CNCCO2)C2CC2)cc2ccccc12` [Example 4, (2R)—N-cyclopropyl-N-{[4-(3-methoxypropoxy)-2-naphthyl]methyl}morpholin-2-carboxamide hydrochloride]: the half-inhibitory concentration (IC50) under setting [1] amounted to 30.2 nM.
